Read-outs that look alike come from different tables or passages of the source.
Assays:
[1] = Brain penetration after single oral dose in rats; format: in vivo; details: Sprague-Dawley, rat, single oral dose (compound 26 5 mg/kg, 62 15 mg/kg, 20, 63 and 66 50 mg/kg), at or near Tmax
Experimental: Nitrone compounds of this invention were formulated individually as suspensions and administered as a single dose to Sprague-Dawley rats via oral gavage (compound 26 at 5 mg/kg, compound 62 at 15 mg/kg, compounds 20, 63 and 66 at 50 mg/kg). Plasma samples were obtained at or near Tmax projected at the given dose for each compound and the animals were euthanized using carbon dioxide. Immediately following euthanization, cerebrospinal fluid (CSF) was obtained by cisternal puncture of the atlanto-occipital membrane and drawn from the magnum cisternum. The brain was first perfused intracardially with ˜150 mL of ice-cold 0.1 M Phosphate Buffered Saline (PBS) at pH7.4. Following the removal of the dura, the brain was weighed. The brain was then dissected into smaller pieces and rinsed twice with ˜10 mL PBS. The brain, CSF, and plasma samples were frozen on dry ice and stored at −80° C. before analysis. CSF and plasma samples were subjected to a protein precipitation method prior to LC/MS/MS analysis. Blank rat plasma and CSF were used accordingly for diluting the samples when needed. Bioanalytical standard curves were prepared by spiking a stock solution of the nitrone compound to blank rat plasma or CSF to achieve a quantitation curve range and analyzed the standards in the same manner as the samples. Brain samples underwent homogenization in 2 mL water and liquid-liquid extraction with ethyl acetate three times. The combined organic phase for each sample was evaporated under a stream of nitrogen at 40° C. and the residues were reconstituted with an appropriate amount of mobile phase B (referring to LC/MS/MS method section). A bioanalytical standard curve for brain analysis was prepared by spiking 100 μL of stock solution directly into sliced blank rat brain purchased from Pelfreez. The spiked brains then underwent the same processing procedures for the dosed samples.
The reconstituted samples were vortexed and incubated to fully dissolve the analytes. The samples were centrifuged, and then further diluted with Mobile phase B if necessary before LC/MS/MS analysis. Nitrone compound levels in the brain were calculated based on the measured concentration, the volume of reconstitution and brain weight to yield a unit of ng (of compound) per g of brain. To calculate the brain/plasma ratio (w/v), it was assumed that 1 g of brain tissue takes approximately 1 mL of volume.

CCI rats = test: Mechanical allodynia in mononeuropathic pain model (chronic constrictive injury, CCI, Bennett model); format: in vivo, SD rats; details: for PWT ipsilateral hind paw (von Frey): 50 mg/kg p.o. single dose, mean ± SEM; for anti-allodynic effect on ipsilateral hind paw vs vehicle (in words): single dose 50 mg/kg, p.o.
From the text: Adult male SD rats weighing 250-300 gm (Charles River Laboratories, San Diego, Calif.) were used. The animal room was lighted artificially at a 12-hr light-dark cycle (7:00 A.M. to 7:00 P.M) with water and food supply ad libitum. Animals were allocated randomly into groups. Seven days before establishing the mononeuropathic pain disease model, rats were trained on a metal mesh floor, covered with a plastic box (10×10×18 cm) 1-2 hr per day to habituate. During the habituating phase, non-painful tactile stimulation on the plantar surface of each hind paw was induced by a set of calibrated von Frey filaments, through the mesh floor, as described in example 2.
Following the 7-day training phase, the animals were anesthetized by i.p. injection of sodium pentobarbital (65 mg/kg, Abbott Lab, Chicago, Ill.). Under aseptic procedures, the skin of the left thigh was cut open for ˜2 cm. Mid-thigh level of the common sciatic nerve was exposed after blunt separation of the muscles. Two 4-0 silk and one 4-0 chromic gut sutures (both from Ethicon, Somerville, N.J.) were loosely ligated around the nerve, with a 1-1.5 mm interval between each of them. Skin wound was then close with wound clips. The right side (i.e., the contralateral side) was not surgically injured. After recovery from surgery, rats showing post-surgery neurological deficits or poor grooming were excluded from the experiments. This surgical procedure (i.e., chronic constrictive injury, CCI, or Bennett model) to establish mononeuropathic pain disease model has been described elsewhere (Bennett, G. J. and Xie, Y. K.: A peripheral mononeuropathy in rat that produces disorders of pain sensation like those seen in man. Pain, 33: 87-107, 1988).
On days 1, 3, 4, 7, 9, 11, and 14 after surgery, animals were tested for mechanical allodynia with von Frey filaments as described previously. On or around post-surgical day 14, the ipsilateral hind paw, felt to 5 grams, an indication of allodynia began to manifest mechanical allodynia (i.e., amplified response to non-painful tactile stimulation by von Frey filaments). The contralateral hind paws remained above the 5-gram level (i.e., no allodynia).
After manifestation of this allodynia, Compound 62 (50 mg/kg, p.o.), Compound 63 (50 mg/kg, p.o.), Compound 66 (50 mg/kg, p.o.), Compound 23 (50 mg/kg, p.o.), 4-hydroxy-tempol (TEMPOL, 50 mg/kg, p.o.), or piroxicam (a COX1 inhibitor, 50 mg/kg, p.o.) were administered to randomly-assigned animals. Changes of mechanical allodynia in the ipsilateral hind paw were recorded at several time points over the course of up to 24 hr.

[2] = Microsomal stability in human liver microsomes; format: in vitro ADME; details: NADPH, 37° C.
Summary of the method: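 Compound (~500 ng/ml) incubated at 37°C for up to 30 min with 0.5 mg/ml microsomal protein and 1 mM NADPH in 0.1 M PBS pH7.4, after 3–5 min preincubation without NADPH. Sprague-Dawley rat or human microsomes; acetonitrile-quenched timepoints analysed by LC/MS/MS for half-life or percent remaining.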

[3] = CSF and plasma, read-out: CSF/Plasma (%)
[4] = brain and plasma, 1 g brain assumed 1 mL, read-out: Brain/Plasma (%)
[5] = post-dosing time −15 min (pre-dose)

CC(C)(C)/[N+]([O-])=C/c1ccc(S(N)(=O)=O)cc1 [Compound 20, N-(tert-Butyl)-C-[4-(sulfamoyl)phenyl]nitrone]
Kp [1, 3]: 0.144
Kp [1, 4]: 0.229

CC(C)(C)/[N+]([O-])=C/c1ccc(S(=O)(=O)N2CCOCC2)cc1 [Compound 23, N-(tert-Butyl)-C-[4-(morpholine-4-sulfonyl)phenyl]nitrone]
PWT ipsilateral hind paw (von Frey) (CCI rats; post-dosing time 30 min): 7.67 ± 0.80 gm
PWT ipsilateral hind paw (von Frey) (CCI rats; post-dosing time 60 min): 8.17 ± 1.52 gm
PWT ipsilateral hind paw (von Frey) (CCI rats; post-dosing time 300 min): 4.43 ± 1.35 gm
PWT ipsilateral hind paw (von Frey) (CCI rats; post-dosing time 1440 min): 4.67 ± 0.84 gm
PWT ipsilateral hind paw (von Frey) (CCI rats; [5]): 2.43 ± 0.54 gm
anti-allodynic effect on ipsilateral hind paw vs vehicle (in words) (CCI rats): statistically significant anti-allodynic effects

CC(C)(C)/[N+]([O-])=C/c1ccc(S(=O)(=O)Nc2cccnc2)cc1 [Compound 26, N-(tert-Butyl)-C-[4-(pyridin-3-ylsulfamoyl)phenyl]nitrone]
Kp [1, 3]: 0.0012
Kp [1, 4]: 0.0056

CC(C)(C)/[N+]([O-])=C/c1ccc(S(C)(=O)=O)cc1 [Compound 62, N-tert-Butyl-C-[4-(methanesulfonyl)phenyl]nitrone]
Kp [1, 3]: 0.786
Kp [1, 4]: 0.625
% of Nitrone Remaining at 30 min (Human) [2]: 100%
PWT ipsilateral hind paw (von Frey) (CCI rats; post-dosing time 5 min): 2.86 ± 0.94 gm
PWT ipsilateral hind paw (von Frey) (CCI rats; post-dosing time 120 min): 16.71 ± 3.44 gm
PWT ipsilateral hind paw (von Frey) (CCI rats; post-dosing time 240 min): 15.14 ± 3.90 gm
PWT ipsilateral hind paw (von Frey) (CCI rats; post-dosing time 360 min): 5.46 ± 1.46 gm
PWT ipsilateral hind paw (von Frey) (CCI rats; post-dosing time 1440 min): 3.43 ± 1.02 gm
PWT ipsilateral hind paw (von Frey) (CCI rats; [5]): 3.17 ± 1.10 gm
anti-allodynic effect on ipsilateral hind paw vs vehicle (in words) (CCI rats): rapid onset but short-lasting anti-allodynic effect

CC(C)(C)/[N+]([O-])=C/c1ccc(S(C)(=O)=O)cc1S(C)(=O)=O [Compound 63, N-tert-Butyl-C-(2,4-bis-methanesulfonylphenyl)nitrone]
Kp [1, 3]: 0.336
Kp [1, 4]: 0.189
% of Nitrone Remaining at 30 min (Human) [2]: 99%
PWT ipsilateral hind paw (von Frey) (CCI rats; post-dosing time 30 min): 18.4 ± 10.42 gm
PWT ipsilateral hind paw (von Frey) (CCI rats; post-dosing time 60 min): 18.8 ± 11.29 gm
PWT ipsilateral hind paw (von Frey) (CCI rats; post-dosing time 300 min): 5.20 ± 1.63 gm
PWT ipsilateral hind paw (von Frey) (CCI rats; post-dosing time 1440 min): 3.60 ± 1.30 gm
PWT ipsilateral hind paw (von Frey) (CCI rats; [5]): 3.88 ± 0.97 gm
anti-allodynic effect on ipsilateral hind paw vs vehicle (in words) (CCI rats): produced anti-allodynic effects on ipsilateral hind paws

CCS(=O)(=O)c1ccc(/C=[N+](\[O-])C(C)(C)C)c(S(=O)(=O)CC)c1 [Compound 64, N-tert-Butyl-C-(2,4-bis-ethanesulfonylphenyl)nitrone]
% of Nitrone Remaining at 30 min (Human) [2]: 100%

CC(C)(C)/[N+]([O-])=C/c1ccccc1S(C)(=O)=O [Compound 66, N-tert-Butyl-C-(2-methanesulfonylphenyl)nitrone]
Kp [1, 3]: 0.936
Kp [1, 4]: 0.224
PWT ipsilateral hind paw (von Frey) (CCI rats; post-dosing time 30 min): 5.33 ± 0.42 gm
PWT ipsilateral hind paw (von Frey) (CCI rats; post-dosing time 60 min): 4.12 ± 0.91 gm
PWT ipsilateral hind paw (von Frey) (CCI rats; post-dosing time 300 min): 5.33 ± 1.12 gm
PWT ipsilateral hind paw (von Frey) (CCI rats; post-dosing time 1440 min): 1.57 ± 0.23 gm
PWT ipsilateral hind paw (von Frey) (CCI rats; [5]): 1.97 ± 0.84 gm
anti-allodynic effect on ipsilateral hind paw vs vehicle (in words) (CCI rats): no significant anti-allodynic effect
